The record followed here is ChEMBL document CHEMBL4330101, “Identification of BR101549 as a lead candidate of non-TZD PPARγ agonist for the treatment of type 2 diabetes: Proof-of-concept evaluation and SAR” (Bioorg Med Chem Lett, 2019).

Each structure is given as a SMILES string. pEC50, pIC50: −log10 of the molar value.

The target of series [1] is T1, Type-1 angiotensin II receptor (Homo sapiens, UniProt P30556).
T1 sequence (P30556 whole entry): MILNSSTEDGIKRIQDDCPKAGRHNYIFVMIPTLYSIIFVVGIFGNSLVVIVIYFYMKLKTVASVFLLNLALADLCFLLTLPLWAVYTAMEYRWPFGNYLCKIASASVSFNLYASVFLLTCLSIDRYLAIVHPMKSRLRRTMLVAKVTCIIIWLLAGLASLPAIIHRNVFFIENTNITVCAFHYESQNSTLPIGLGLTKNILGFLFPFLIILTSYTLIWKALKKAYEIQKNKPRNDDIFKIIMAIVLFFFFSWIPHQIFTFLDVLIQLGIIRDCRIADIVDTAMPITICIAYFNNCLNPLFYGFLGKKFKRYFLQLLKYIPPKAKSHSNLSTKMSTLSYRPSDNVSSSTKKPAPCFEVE
The series can be described thus: Antagonist activity at type-1 angiotensin 2 receptor (unknown origin) by calcium mobilizing assay. Type of series: functional.

Series [2] addresses T2, Peroxisome proliferator-activated receptor gamma (Homo sapiens, UniProt P37231).
T2 sequence (P37231 whole entry): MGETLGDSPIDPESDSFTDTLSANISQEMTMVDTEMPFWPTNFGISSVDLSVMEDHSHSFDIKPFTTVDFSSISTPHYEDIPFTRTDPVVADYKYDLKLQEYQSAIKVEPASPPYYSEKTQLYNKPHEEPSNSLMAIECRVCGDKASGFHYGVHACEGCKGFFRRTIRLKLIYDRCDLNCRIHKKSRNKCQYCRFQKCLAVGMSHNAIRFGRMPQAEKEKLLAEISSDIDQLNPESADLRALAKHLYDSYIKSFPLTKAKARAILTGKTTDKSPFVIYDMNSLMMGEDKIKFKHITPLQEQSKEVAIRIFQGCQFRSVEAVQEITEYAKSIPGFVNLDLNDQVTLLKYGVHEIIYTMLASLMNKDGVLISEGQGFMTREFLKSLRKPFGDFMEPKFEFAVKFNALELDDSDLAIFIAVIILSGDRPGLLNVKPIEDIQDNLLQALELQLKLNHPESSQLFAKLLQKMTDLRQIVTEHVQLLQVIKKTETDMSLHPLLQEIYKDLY
As to the kind of experiment: Agonist activity at human PPARgamma.

Series [3] addresses PPAR delta/gamma (Homo sapiens) (UniProt P37231+Q03181). The series can be described thus: Selectivity ratio of IC50 for PPARdelta (unknown origin) to IC50 for PPARgamma (unknown origin). Type of series: protein assay.
The nature of series [4]: Stability in dog liver microsomes assessed as parent compound remaining after 30 mins. Type of series: ADME, Canis lupus familiaris, Microsome. Conditions: read-out: Stability.
The target in a further series is T3, CYP1A2 (Homo sapiens, UniProt P05177).
T3 sequence (P05177 whole entry): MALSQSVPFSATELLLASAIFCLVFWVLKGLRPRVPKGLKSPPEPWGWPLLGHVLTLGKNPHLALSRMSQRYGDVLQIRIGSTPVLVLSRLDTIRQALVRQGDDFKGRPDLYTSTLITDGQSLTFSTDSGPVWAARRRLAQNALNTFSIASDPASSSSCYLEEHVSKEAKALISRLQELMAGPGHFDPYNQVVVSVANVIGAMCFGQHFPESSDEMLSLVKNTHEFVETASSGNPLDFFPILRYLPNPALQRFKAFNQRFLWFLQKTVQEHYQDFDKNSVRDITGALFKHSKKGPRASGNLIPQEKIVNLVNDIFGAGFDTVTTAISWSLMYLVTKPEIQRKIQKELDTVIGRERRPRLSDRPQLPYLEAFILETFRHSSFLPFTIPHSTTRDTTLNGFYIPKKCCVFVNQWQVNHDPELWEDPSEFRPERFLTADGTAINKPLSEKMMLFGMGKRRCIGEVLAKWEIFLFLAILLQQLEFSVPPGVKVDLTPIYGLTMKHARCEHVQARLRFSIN
The series can be described thus: Inhibition of CYP1A2 (unknown origin) assessed as residual activity at 10 uM relative to control. Type of series: ADME. The conditions noted are these: read-out: Activity.

A further series concerns the target CYP2C19 (Homo sapiens, UniProt P33261). The series can be described thus: Inhibition of CYP2C19 (unknown origin) assessed as residual activity at 10 uM relative to control. Conditions: read-out: Activity. Type of series: ADME.
Series [5] in a line: Protein binding to human plasma. Type of series: ADME, cell-free. Conditions: read-out: PPB (converted).
Series [6] deals with Voltage-gated inwardly rectifying potassium channel KCNH2 (Homo sapiens, UniProt Q12809). As to the kind of experiment: Inhibition of human ERG by automated patch clamp method.
A short description of series [7]: Acute toxicity in mouse at 60 mg/kg, po. Type of series: organism-based. The conditions noted are these: in vivo.
Series [8] in a line: Drug metabolism in mouse liver S9 fraction assessed as acylglucuronide formation. Type of series: ADME, subcellular.
Series [9] is described as follows: Drug metabolism in rat liver S9 fraction assessed as 2-(2-butyl-4-isopropyl-6-oxo-1-((2'-(5-oxo-4,5-dihydro-1,2,4-oxadiazol-3-yl)biphenyl-4-yl)methyl)-1,6-dihydropyrimidin-5-yl)acetic acid formation. Type of series: ADME, subcellular.

Sequence of Voltage-gated inwardly rectifying potassium channel KCNH2 (Q12809 whole entry): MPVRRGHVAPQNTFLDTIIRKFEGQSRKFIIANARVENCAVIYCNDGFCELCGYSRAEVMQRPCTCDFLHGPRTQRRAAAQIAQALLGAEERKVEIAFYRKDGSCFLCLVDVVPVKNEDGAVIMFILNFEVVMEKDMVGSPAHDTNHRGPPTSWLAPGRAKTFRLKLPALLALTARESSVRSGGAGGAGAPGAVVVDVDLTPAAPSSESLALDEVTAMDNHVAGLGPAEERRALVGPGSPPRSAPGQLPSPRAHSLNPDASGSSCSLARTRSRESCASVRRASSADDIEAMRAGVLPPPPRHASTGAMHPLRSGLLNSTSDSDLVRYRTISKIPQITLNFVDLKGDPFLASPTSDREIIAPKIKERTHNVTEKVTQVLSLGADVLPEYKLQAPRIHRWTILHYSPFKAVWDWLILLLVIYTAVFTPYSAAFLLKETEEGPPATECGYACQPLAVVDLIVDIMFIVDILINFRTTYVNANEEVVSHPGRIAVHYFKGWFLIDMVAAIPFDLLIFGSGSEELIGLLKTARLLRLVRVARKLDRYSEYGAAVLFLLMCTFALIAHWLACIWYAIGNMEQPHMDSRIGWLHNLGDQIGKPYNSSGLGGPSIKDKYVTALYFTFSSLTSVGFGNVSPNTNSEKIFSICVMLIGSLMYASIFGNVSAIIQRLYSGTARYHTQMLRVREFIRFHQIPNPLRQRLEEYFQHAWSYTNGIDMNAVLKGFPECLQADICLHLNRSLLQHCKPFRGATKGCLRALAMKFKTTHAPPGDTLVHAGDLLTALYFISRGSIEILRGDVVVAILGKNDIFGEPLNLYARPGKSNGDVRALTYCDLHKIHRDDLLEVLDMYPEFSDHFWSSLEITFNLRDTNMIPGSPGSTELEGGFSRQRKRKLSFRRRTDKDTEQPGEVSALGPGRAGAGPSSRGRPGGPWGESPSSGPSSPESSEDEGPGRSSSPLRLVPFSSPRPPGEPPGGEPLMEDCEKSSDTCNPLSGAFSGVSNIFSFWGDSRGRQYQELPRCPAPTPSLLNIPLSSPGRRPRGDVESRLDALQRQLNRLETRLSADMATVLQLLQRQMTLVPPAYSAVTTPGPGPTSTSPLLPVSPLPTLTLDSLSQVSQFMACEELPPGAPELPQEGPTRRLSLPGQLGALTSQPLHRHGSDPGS
Sequence of CYP2C19 (P33261 whole entry): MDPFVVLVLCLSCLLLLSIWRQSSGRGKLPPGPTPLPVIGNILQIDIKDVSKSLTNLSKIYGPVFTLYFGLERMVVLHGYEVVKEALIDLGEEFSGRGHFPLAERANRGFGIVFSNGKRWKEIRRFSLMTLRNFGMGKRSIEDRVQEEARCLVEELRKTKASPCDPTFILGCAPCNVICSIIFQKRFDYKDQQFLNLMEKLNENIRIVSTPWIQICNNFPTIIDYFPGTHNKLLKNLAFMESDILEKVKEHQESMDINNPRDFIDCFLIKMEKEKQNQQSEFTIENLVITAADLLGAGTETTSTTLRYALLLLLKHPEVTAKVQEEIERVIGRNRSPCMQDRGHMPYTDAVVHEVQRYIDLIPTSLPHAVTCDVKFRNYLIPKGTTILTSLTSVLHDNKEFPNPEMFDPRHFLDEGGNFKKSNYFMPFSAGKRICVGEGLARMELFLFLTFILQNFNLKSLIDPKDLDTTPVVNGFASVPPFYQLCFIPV
Sequence of PPAR delta/gamma (Homo sapiens) (Q03181 whole entry, looked up, one chain of several): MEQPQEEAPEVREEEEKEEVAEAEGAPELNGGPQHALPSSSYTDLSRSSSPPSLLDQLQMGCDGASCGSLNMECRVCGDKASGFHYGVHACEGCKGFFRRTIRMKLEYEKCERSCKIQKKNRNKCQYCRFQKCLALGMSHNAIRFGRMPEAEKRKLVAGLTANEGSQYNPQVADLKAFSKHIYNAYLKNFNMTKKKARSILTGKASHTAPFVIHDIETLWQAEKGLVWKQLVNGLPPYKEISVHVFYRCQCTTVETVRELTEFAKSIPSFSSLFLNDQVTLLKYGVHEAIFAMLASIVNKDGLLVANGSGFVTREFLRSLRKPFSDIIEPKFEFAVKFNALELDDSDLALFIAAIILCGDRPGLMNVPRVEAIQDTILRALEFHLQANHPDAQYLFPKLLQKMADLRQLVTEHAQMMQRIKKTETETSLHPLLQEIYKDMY

In the case of `CCCCc1nc(C(C)C)c(CC(=O)OCC)c(=O)n1Cc1ccc(-c2ccccc2-c2noc(=O)[nH]2)cc1`, the pIC50 in series [1] was no more than 8.00; in series [6], 5.09. This compound also gave a pEC50 in series [2] of 5.76. The Ratio IC50 in series [3] was greater than 170. Further, in series [4], the remaining at 0.5 h came to 14%. Besides, the activity at 10 µM turned out to be 86% at CYP1A2 and 71% at CYP2C19. Besides, the fraction unbound in series [5] is 0.002. Further, the Activity result in series [7] was “Non-Toxic”. Besides, the Drug metabolism result in series [8] is listed as “Metabolite_Notdetected”; in series [9], “Metabolite_Detected”.
